These results are taken from ChEMBL document CHEMBL4052715, “Discovery of novel DAPY-IAS hybrid derivatives as potential HIV-1 inhibitors using molecular hybridization based on crystallographic overlays” (Bioorg Med Chem, 2017).

Data set [1] in a line: Cytotoxicity against human MT4 cells assessed as reduction in cell viability after 5 days by MTT assay. Format: cell-based.
A short description of data set [2]: Selectivity index, ratio of CC50 for human MT4 cells to EC50 for wild type HIV1 3B infected in human MT4 cells. Format: toxicity, cell-based. The settings on record: read-out: Ratio CC50/EC50.
In data set [3] the test system is Human immunodeficiency virus 1. Put plainly: Antiviral activity against wild type HIV1 3B infected in human MT4 cells assessed as inhibition of virus-induced cytopathic effect after 5 days by MTT assay. Format: functional, cell-based. The settings on record: Human immunodeficiency virus 1, 3B, MT4, 120 h. (In general: Protection from cytopathic effect is a common read-out in antiviral testing.)

For data set [4], the system named is Human immunodeficiency virus 2. Put plainly: Antiviral activity against HIV2 ROD harboring reverse transcriptase K103N/Y181C double mutant infected in human MT4 cells assessed as inhibition of virus-induced cytopathic effect after 5 days by MTT assay. Format: functional, cell-based. The settings on record: ISOLATE ROD.
The test system of data set [5] is Human immunodeficiency virus 1. Nature of the data set: Antiviral activity against HIV1 RES056 harboring reverse transcriptase K103N/Y181C double mutant infected in human MT4 cells assessed as inhibition of virus-induced cytopathic effect after 5 days by MTT assay. Format: functional, cell-based.
Data set [6] relates to Human immunodeficiency virus 1. Nature of the data set: Inhibition of recombinant wild type HIV1 reverse transcriptase assessed as reduction in biotin-dUTP incorporation at 50 uM using poly(A)/oligo(dT)15 as template/primer by ELISA relative to control.

Active and inactive are the calls of the source. The calls are words filed in the database; no cut-off is given here.

What is called CC50 is the concentration at which the toxic effect on the cells reaches its halfway point. Usually EC50 stands for the concentration giving half of the maximal effect. Take `Nc1ccn([C@@H]2CS[C@H](CO)O2)c(=O)n1` [LAMIVUDINE]: the CC50 at 120 h in data set [1] was above 87.2 µM. In addition, the selectivity ratio in data set [2] was above 34. Further, the EC50 in data set [3] is 2.54 µM.

As a reminder, the inhibition is the change of the read-out against control, counted positive when it falls. For `N#Cc1ccc(Nc2nccc(NS(=O)(=O)c3ccc(C#N)cc3)n2)cc1`, the CC50 at 120 h in data set [1] came out at 159 µM. The selectivity ratio in data set [2] came to 4. Also, in data set [3], the EC50 amounted to 39.4 µM. The inhibition entry in data set [4] and in data set [5] was “inactive” each time.

For `Cc1ccc(S(=O)(=O)Nc2ccnc(Nc3ccc(C#N)cc3)c2)cc1`, the CC50 at 120 h in data set [1] came out at 14 µM. In data set [2], the selectivity ratio is 9. Besides, the EC50 in data set [3] turned out to be 1.48 µM. The inhibition in data set [6] worked out at 5.7%. In addition, the inhibition result in data set [4] and in data set [5] was “inactive” throughout.

For `Cc1cc(C)cc(S(=O)(=O)Nc2ccnc(Nc3ccc(C#N)cc3)c2)c1`, the 50% cytotoxic concentration (CC50) at 120 h in data set [1] came to 5.06 µM. Further, the selectivity ratio in data set [2] was below 1. Moreover, the EC50 in data set [3] was above 5.06 µM. Besides, the inhibition result in data set [4] and in data set [5] was “inactive” each time.

Turning to `Cc1cc(C)c(S(=O)(=O)Nc2ccnc(Nc3ccc(C#N)cc3)c2)c(C)c1`, in data set [1], the CC50 at 120 h came to 22.2 µM. For the same molecule, in data set [2], the selectivity ratio is 4. In data set [3], the EC50 was 6.08 µM. Further, the inhibition result in data set [4] and in data set [5] was “inactive” each time.

On to `CC(C)c1cc(C(C)C)c(S(=O)(=O)Nc2ccnc(Nc3ccc(C#N)cc3)n2)c(C(C)C)c1`, for which, in data set [1], the CC50 at 120 h was found to be 17.4 µM. Besides, the selectivity ratio in data set [2] is below 1. Further, in data set [3], the concentration giving a half-maximal response (EC50) was above 17.4 µM. Further, the inhibition result in data set [4] and in data set [5] was “inactive” throughout.

As for `N#Cc1ccc(Nc2cc(NS(=O)(=O)c3cc(C(F)(F)F)cc(C(F)(F)F)c3)ccn2)cc1`, the CC50 at 120 h in data set [1] stood at 62.2 µM. The selectivity ratio in data set [2] was below 1. Moreover, the EC50 in data set [3] was above 62.2 µM. In addition, the inhibition entry in data set [4] and in data set [5] was “inactive” each time.

Consider `Cc1cc(C)cc(S(=O)(=O)Nc2ccnc(Nc3ccc(C#N)cc3)n2)c1`, for which, in data set [1], the half-maximal cytotoxic concentration (CC50) at 120 h came out at 173 µM. In data set [2], the selectivity ratio was 28. In data set [3], the EC50 came to 6.21 µM. Besides, the inhibition entry in data set [4] and in data set [5] was “inactive” in each case.

Consider `Cc1cc(C#N)cc(C)c1Oc1nc(Nc2ccc(C#N)cc2)nc(N)c1Br` [ETRAVIRINE], for which the CC50 at 120 h in data set [1] was 2.15 µM. The selectivity ratio in data set [2] was 541. Also, the EC50 in data set [3] came to 0.004 µM. Besides, the inhibition in data set [6] worked out at 93.3%.

Turning to `N#Cc1ccc(Nc2nccc(NS(=O)(=O)c3ccc(F)cc3)n2)cc1`, the CC50 at 120 h in data set [1] was found to be 36.6 µM. In addition, the selectivity ratio in data set [2] is at most 4. Moreover, the EC50 in data set [3] is at least 9.05 µM. For the same molecule, the inhibition result in data set [4] and in data set [5] was “inactive” each time.

Turning to `Cc1ccnc2c1NC(=O)c1cccnc1N2C1CC1`, in data set [6], the inhibition amounted to 88%.

In the case of `Cc1cc(C)c(S(=O)(=O)Nc2ccnc(Nc3ccc(C#N)cc3)n2)c(C)c1`, the cytotoxic concentration (CC50) at 120 h in data set [1] stood at 4.4 µM. Moreover, the selectivity ratio in data set [2] was below 1. Also, the EC50 in data set [3] is above 4.4 µM. Moreover, the inhibition result in data set [4] and in data set [5] was “inactive” each time.

As to `N#Cc1ccc(Nc2nccc(NS(=O)(=O)c3cc(F)cc(F)c3)n2)cc1`, in data set [1], the CC50 at 120 h turned out to be 93.9 µM. Also, the selectivity ratio in data set [2] was 2. The 50% effective concentration (EC50) in data set [3] is 47 µM. Besides, the inhibition entry in data set [4] and in data set [5] was “inactive” throughout.

For the molecule `N#Cc1ccc(Nc2nccc(NS(=O)(=O)c3cc(C(F)(F)F)cc(C(F)(F)F)c3)n2)cc1`, in data set [1], the CC50 at 120 h turned out to be 115 µM. For the same molecule, the selectivity ratio in data set [2] is below 1. Besides, the EC50 in data set [3] is above 115 µM. In addition, the inhibition result in data set [4] and in data set [5] was “inactive” each time.

On to `N#Cc1ccc(Nc2nccc(NS(=O)(=O)c3ccc(C(F)(F)F)cc3)n2)cc1`, for which, in data set [1], the 50% cytotoxic concentration (CC50) at 120 h stood at 54.7 µM. The selectivity ratio in data set [2] was below 1. Further, the EC50 in data set [3] was above 54.7 µM. In addition, the inhibition result in data set [4] and in data set [5] was “inactive” throughout.

Turning to `N#Cc1ccc(Nc2cc(NS(=O)(=O)c3ccc(C(F)(F)F)cc3)ccn2)cc1`, the CC50 at 120 h in data set [1] turned out to be 28 µM. Further, the selectivity ratio in data set [2] is below 1. In addition, the EC50 in data set [3] was above 28 µM. For the same molecule, the inhibition result in data set [4] and in data set [5] was “inactive” in each case.

On to `N#Cc1ccc(Nc2cc(NS(=O)(=O)c3cc(F)cc(F)c3)ccn2)cc1`, for which the CC50 at 120 h in data set [1] amounted to 28.6 µM. The selectivity ratio in data set [2] is below 1. In data set [3], the concentration for a half-maximal effect (EC50) was above 28.6 µM. Moreover, the inhibition result in data set [4] and in data set [5] was “inactive” in each case.

For `N#Cc1ccc(Nc2cc(NS(=O)(=O)c3ccc(F)cc3)ccn2)cc1`, in data set [1], the CC50 at 120 h amounted to 6.12 µM. The selectivity ratio in data set [2] is below 1. In data set [3], the EC50 was above 6.12 µM. Further, the inhibition entry in data set [4] and in data set [5] was “inactive” each time.

On to `CC(C)(C)c1ccc(S(=O)(=O)Nc2ccnc(Nc3ccc(C#N)cc3)c2)cc1`, for which, in data set [1], the CC50 at 120 h stood at 29.3 µM. The selectivity ratio in data set [2] was 6. Moreover, the EC50 in data set [3] came to 4.92 µM. For the same molecule, the inhibition result in data set [4] and in data set [5] was “inactive” in each case.

Consider `N#Cc1ccc(Nc2nccc(NS(=O)(=O)c3ccc4ccccc4c3)n2)cc1`, for which the CC50 at 120 h in data set [1] stood at 77.1 µM. In addition, the selectivity ratio in data set [2] came out at 2. Further, in data set [3], the EC50 turned out to be 48.9 µM. Moreover, the inhibition entry in data set [4] and in data set [5] was “inactive” throughout.

`Cc1cc(C)cc(S(=O)(=O)c2c(C(N)=O)[nH]c3ccc(Cl)cc23)c1`: the CC50 at 120 h in data set [1] was determined as 11 µM. Also, in data set [2], the selectivity ratio was 4260. In data set [3], the EC50 was found to be 0.0026 µM.

As to `N#Cc1ccc(Nc2cc(NS(=O)(=O)c3ccc(C#N)cc3)ccn2)cc1`, the CC50 at 120 h in data set [1] was found to be 93.4 µM. In addition, in data set [2], the selectivity ratio was below 1. Moreover, the concentration giving a half-maximal response (EC50) in data set [3] was above 93.4 µM. In addition, the inhibition result in data set [4] and in data set [5] was “inactive” throughout.

Regarding `O=c1[nH]cnc2c1ncn2[C@H]1CC[C@@H](CO)O1` [DIDANOSINE], the CC50 at 120 h in data set [1] was above 212 µM. Besides, the selectivity ratio in data set [2] is above 3. For the same molecule, in data set [3], the EC50 is 76 µM.

For `Cc1ccc(S(=O)(=O)Nc2ccnc(Nc3ccc(C#N)cc3)n2)cc1`, the CC50 at 120 h in data set [1] was 130 µM. Moreover, the selectivity ratio in data set [2] is 80. The half-maximal effective concentration (EC50) in data set [3] was 1.61 µM. For the same molecule, the inhibition in data set [6] was 41.5%. Further, the inhibition entry in data set [4] and in data set [5] was “inactive” throughout.

For `N#Cc1ccc(Nc2cc(NS(=O)(=O)c3ccc4ccccc4c3)ccn2)cc1`, the CC50 at 120 h in data set [1] was 30 µM. For the same molecule, in data set [2], the selectivity ratio is below 1. In addition, in data set [3], the half-maximal effective concentration (EC50) was above 30 µM. In addition, the inhibition result in data set [4] and in data set [5] was “inactive” in each case.

With `CC(C)(C)c1ccc(S(=O)(=O)Nc2ccnc(Nc3ccc(C#N)cc3)n2)cc1`, the CC50 at 120 h in data set [1] came to 30.3 µM. Also, in data set [2], the selectivity ratio is 4. Further, the EC50 in data set [3] came out at 7.52 µM. The inhibition entry in data set [4] and in data set [5] was “inactive” throughout.

For the molecule `CC(C)c1cc(C(C)C)c(S(=O)(=O)Nc2ccnc(Nc3ccc(C#N)cc3)c2)c(C(C)C)c1`, the CC50 at 120 h in data set [1] is 11.5 µM. The selectivity ratio in data set [2] was below 1. For the same molecule, the EC50 in data set [3] is above 11.5 µM. For the same molecule, the inhibition entry in data set [4] and in data set [5] was “inactive” throughout.
